Assay results reported in ChEMBL document CHEMBL1125394, “Analgesic dipeptide derivatives. 7. 3,7-Diamino-2-hydroxyheptanoic acid (DAHHA) containing dipeptide analogues of the analgesic compound H-Lys-Trp(Nps)-OMe” (J Med Chem, 1992).
One block for each molecule: values may come before it. Residues, ends and D or L forms follow the SMILES beside them.

Tests used:
Aminopeptidase N [1] = target: T1, Aminopeptidase N (Rattus norvegicus, UniProt P15684); assay: Compound was evaluated for its inhibitory potency against purified membrane bound rat brain Aminopeptidase M (AP-M) using [3H]Leu-enkephalin as substrate
T1 sequence (P15684 whole entry): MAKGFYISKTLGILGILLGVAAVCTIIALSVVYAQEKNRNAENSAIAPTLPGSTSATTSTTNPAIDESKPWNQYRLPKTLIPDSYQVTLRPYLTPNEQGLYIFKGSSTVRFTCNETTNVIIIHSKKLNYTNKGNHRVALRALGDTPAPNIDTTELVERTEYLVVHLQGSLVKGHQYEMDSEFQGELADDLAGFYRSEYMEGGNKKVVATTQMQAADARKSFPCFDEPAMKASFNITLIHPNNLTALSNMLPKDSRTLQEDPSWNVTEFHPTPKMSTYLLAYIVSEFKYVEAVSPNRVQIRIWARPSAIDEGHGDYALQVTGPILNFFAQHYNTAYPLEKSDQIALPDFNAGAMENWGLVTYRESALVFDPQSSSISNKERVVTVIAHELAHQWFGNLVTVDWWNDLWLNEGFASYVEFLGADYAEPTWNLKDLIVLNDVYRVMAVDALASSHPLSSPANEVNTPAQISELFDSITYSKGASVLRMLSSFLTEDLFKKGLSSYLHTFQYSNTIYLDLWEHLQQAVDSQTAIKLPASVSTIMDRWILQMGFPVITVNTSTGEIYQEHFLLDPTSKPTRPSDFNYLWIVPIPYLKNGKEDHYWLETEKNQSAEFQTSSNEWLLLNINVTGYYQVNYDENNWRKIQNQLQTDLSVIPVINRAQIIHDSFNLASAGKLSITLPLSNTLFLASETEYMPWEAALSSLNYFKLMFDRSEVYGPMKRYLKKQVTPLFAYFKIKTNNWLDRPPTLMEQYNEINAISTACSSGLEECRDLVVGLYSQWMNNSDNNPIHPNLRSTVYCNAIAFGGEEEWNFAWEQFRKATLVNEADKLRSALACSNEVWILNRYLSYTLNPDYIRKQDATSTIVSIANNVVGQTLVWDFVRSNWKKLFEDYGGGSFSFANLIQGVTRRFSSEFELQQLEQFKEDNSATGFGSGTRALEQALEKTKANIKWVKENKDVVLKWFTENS

Aminopeptidase B [2] = target: T2, Aminopeptidase B (Rattus norvegicus, UniProt O09175); assay: Compound was evaluated for its inhibitory potency against purified membrane bound rat brain Aminopeptidase B (AP-B) using L-lysine-beta napthylamide as substrate
T2 sequence (O09175 whole entry): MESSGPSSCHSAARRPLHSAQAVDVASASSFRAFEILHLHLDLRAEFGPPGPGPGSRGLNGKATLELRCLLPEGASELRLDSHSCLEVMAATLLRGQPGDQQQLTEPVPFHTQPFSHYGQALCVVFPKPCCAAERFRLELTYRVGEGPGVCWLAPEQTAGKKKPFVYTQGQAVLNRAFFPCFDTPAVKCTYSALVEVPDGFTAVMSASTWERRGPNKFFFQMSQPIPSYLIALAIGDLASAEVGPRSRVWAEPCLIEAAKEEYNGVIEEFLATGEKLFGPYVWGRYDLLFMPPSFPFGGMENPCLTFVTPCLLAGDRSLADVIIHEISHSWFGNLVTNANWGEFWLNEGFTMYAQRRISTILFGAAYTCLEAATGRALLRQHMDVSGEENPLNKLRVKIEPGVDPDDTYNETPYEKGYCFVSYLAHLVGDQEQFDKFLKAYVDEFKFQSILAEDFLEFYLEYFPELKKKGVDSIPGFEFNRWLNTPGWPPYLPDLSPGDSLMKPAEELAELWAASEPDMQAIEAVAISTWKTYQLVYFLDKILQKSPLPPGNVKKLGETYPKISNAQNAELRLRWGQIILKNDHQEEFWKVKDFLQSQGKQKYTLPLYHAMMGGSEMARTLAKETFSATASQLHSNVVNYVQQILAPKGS

Mus musculus [3] = species: Mus musculus; assay: Analgesic response measured as percentage change in reaction time (dose 1 ug given intracervically) after 60 min in mice; assay type: functional
Aminopeptidase N [4] = target: T1, Aminopeptidase N; assay: Compound was evaluated for its inhibitory potency against purified membrane bound rat brain Aminopeptidase M using [3H]Leu-enkephalin as substrate; assay type: functional
Mus musculus [5] = species: Mus musculus; assay: Analgesic response measured as percentage change in reaction time (dose 1 ug given intracervically) after 30 min in mice; assay type: functional
Mus musculus [6] = species: Mus musculus; assay: Analgesic response measured as percentage change in reaction time (dose 0.5 ug given intracervically) after 60 min in mice; assay type: functional
[7] = Compound was evaluated for its inhibitory potency against purified membrane bound rat brain APs; assay type: functional
Mus musculus [8] = species: Mus musculus; assay: Analgesic response measured as percentage change in reaction time (dose 0.5 ug given intracervically) after 5 min in mice; assay type: functional
Mus musculus [9] = species: Mus musculus; assay: Analgesic response measured as percentage change in reaction time (dose 0.5 ug given intracervically) after 30 min in mice; assay type: functional
Mus musculus [10] = species: Mus musculus; assay: Analgesic response measured as percentage change in reaction time (dose 1 ug given intracervically) after 5 min in mice; assay type: functional
Aminopeptidase B [11] = target: T2, Aminopeptidase B; assay: Compound was evaluated for its inhibitory potency against purified membrane bound rat brain Aminopeptidase B using L-lysine-beta napthylamide as substrate; assay type: functional
Mus musculus [12] = species: Mus musculus; assay: Analgesic response measured as percentage change in reaction time (dose 5 ug given intracervically) after 5 min in mice; assay type: functional
Aminopeptidase N [13] = target: T1, Aminopeptidase N; assay: Inhibitory potency against purified membrane bound rat brain Aminopeptidase M (AP-M) using [3H]Leu-enkephalin as substrate
Mus musculus [14] = species: Mus musculus; assay: Analgesic response measured as percentage change in reaction time (dose 5 ug given intracervically) after 60 min in mice; assay type: functional
Mus musculus [15] = species: Mus musculus; assay: Analgesic response measured as percentage change in reaction time (dose 5 ug given intracervically) after 30 min in mice; assay type: functional
Aminopeptidase B [16] = target: T2, Aminopeptidase B; assay: Inhibitory potency against purified membrane bound rat brain Aminopeptidase B (AP-B) using L-lysine-beta napthylamide as substrate
Mus musculus [17] = species: Mus musculus; assay: Analgesic response measured as percentage change in reaction time (dose 10 ug given intracervically) after 5 min in mice; assay type: functional
Mus musculus [18] = species: Mus musculus; assay: Analgesic response measured as percentage change in reaction time (dose 10 ug given intracervically) after 30 min in mice; Signs of strong neurotoxicity; assay type: functional, organism-based
Mus musculus [19] = species: Mus musculus; assay: Analgesic response measured as percentage change in reaction time (dose 10 ug given intracervically) after 60 min in mice; Signs of strong neurotoxicity; assay type: functional, organism-based
Mus musculus [20] = species: Mus musculus; assay: Analgesic response measured as percentage change in reaction time ((dose 1 ug given intracervically) after 60 min in mice; assay type: functional

IC50 (Aminopeptidase N [1]): > 1000 µM
IC50 (Aminopeptidase B [2]): > 1000 µM
SMILES: NCCCC[C@H](N)C(=O)N[C@@H](Cc1c[nH]c2ccccc12)C(=O)O (H-Lys-Trp-OH)

SMILES: COC(=O)[C@H](Cc1c(Sc2ccccc2[N+](=O)[O-])[nH]c2ccccc12)NC(=O)[C@@H](N)CCCCN
Change (Mus musculus [3]): 35%
IC50 (Aminopeptidase N [4]): 261 µM
Change (Mus musculus [5]): <60%
Change (Mus musculus [6]): 20%
IC50 [7]: 18 µM
Change (Mus musculus [8]): <80%
Change (Mus musculus [9]): <40%
Change (Mus musculus [10]): <130%
IC50 (Aminopeptidase B [11]): 400 µM

SMILES: COC(=O)[C@H](Cc1c(Sc2ccccc2[N+](=O)[O-])[nH]c2ccccc12)NC(=O)C(O)[C@@H](N)CCCCN (stereo partly drawn)
Change (Mus musculus [3]): -8%
Change (Mus musculus [12]): 75%
Change (Mus musculus [5]): 15%
IC50 (Aminopeptidase N [13]): 852 µM
Change (Mus musculus [14]): 43%
Change (Mus musculus [15]): 64%
Change (Mus musculus [10]): 25%
IC50 (Aminopeptidase B [16]): 583 µM

SMILES: COC(=O)[C@H](Cc1c[nH]c2ccccc12)NC(=O)[C@@H](O)[C@@H](N)CCCCN.COC(=O)[C@H](Cc1c[nH]c2ccccc12)NC(=O)[C@H](O)[C@@H](N)CCCCN
Change (Mus musculus [12]): 26%
IC50 (Aminopeptidase N [4]): > 1000 µM
Change (Mus musculus [14]): -4%
Change (Mus musculus [15]): 19%
IC50 (Aminopeptidase B [11]): 500 µM

SMILES: COC(=O)[C@H](Cc1c(Sc2ccccc2[N+](=O)[O-])[nH]c2ccccc12)NC(=O)[C@@H](O)[C@H](N)CCCCN
Change (Mus musculus [12]): 146%
Change (Mus musculus [5]): 63%
IC50 (Aminopeptidase N [1]): 7 µM
Change (Mus musculus [17]): 243%
Change (Mus musculus [18]): Signs of strong neurotoxicity
Change (Mus musculus [14]): 74%
Change (Mus musculus [15]): 80%
Change (Mus musculus [19]): Signs of strong neurotoxicity
Change (Mus musculus [10]): 124%
Change (Mus musculus [20]): 47%
IC50 (Aminopeptidase B [2]): 101 µM

SMILES: COC(=O)[C@@H](Cc1c[nH]c2ccccc12)NC(=O)[C@@H](O)[C@@H](N)CCCCN
Change (Mus musculus [12]): -1%
IC50 (Aminopeptidase N [4]): > 1000 µM
Change (Mus musculus [14]): 15%
Change (Mus musculus [15]): 10%
IC50 (Aminopeptidase B [11]): > 1000 µM

SMILES: COC(=O)[C@@H](Cc1c(Sc2ccccc2[N+](=O)[O-])[nH]c2ccccc12)NC(=O)[C@H](O)[C@@H](N)CCCCN
Change (Mus musculus [3]): -1%
Change (Mus musculus [12]): 59%
Change (Mus musculus [5]): 21%
IC50 (Aminopeptidase N [1]): 225 µM
Change (Mus musculus [14]): 55%
Change (Mus musculus [15]): 75%
Change (Mus musculus [10]): 19%
IC50 (Aminopeptidase B [2]): 982 µM
